One compound from US20040077639A1, “Methods for the treatment of respiratory diseases and conditions using a selective iNOS inhibitor” (priority 2002, published 2004) can be followed below.

Experiment [1] has as its system iNOS activity in human primary airway epithelial cells. Nature of the experiment: Nitrite in media of cytokine-treated human primary airway epithelial cells. As to conditions: 50 ng/ml IL-1β, TNF-α and IFN-γ (cytomix), 24 h; FIG. 1; read-out: IC50 for inhibition of the increase in nitrite in the media. Format: cell-based. As for the experimental part:
Human primary airway epithelial cell cultures: Human primary airway epithelial cells were cultured as described previously (see Donnelly,L. E. and Barnes, P. J. Am J Respir Cell Mol.Biol 24:295-303 (2000)), and the amount of nitrite, the stable oxidation product of NO, in the cell culture media was measured using a modification of the spectrofluorometric method of Misko et al., Anal. Biochem. […] (1993).
The protein was evenly distributed throughout the cytoplasm in basal cells but clearly located beneath the cilia in the columnar, ciliated cells. Treatment of airway epithelial cells with 50 ng/ml of IL-1β, TNF-α and IFN-γ (cytomix) for 24 h caused an induction of iNOS protein and an increase in the accumulation of nitrite in cell culture media from 2.20±0.2 μM in the absence of cytomix, to 3.5±0.4 μM in the presence of cytomix.
Media was harvested and measured for nitrite content (FIG. 1). Cellular proteins were resolved on 3-8% tris-acetate polyacrylamide gels and immunoblotted for iNOS protein (FIG. 2).
Rather, as expected, it appears to result from inhibition of enzymatic activity.

Experiment [2] concerns iNOS protein expression in human primary airway epithelial cells. As to the kind of experiment: Western blotting of iNOS from cultured epithelial cells. It is filed as cell-based. As to conditions: cytomix-treated cells; FIG. 2. The procedure: Westem blotting of INOS from cultured epithelial cells: Following incubation with the cytokine mixture alone or with various concentrations of L-NIL, epithelial cells were lysed in 50 mM Tris/HCl, pH 7.4, containing 0.25 mM ethylene diaminotetraacetic acid, 0.5 mM phenylmethylsulfonyl fluoride, 5 μg/ml antipain, 5 μg/ml leupeptin and 5 μg/ml benzaminidine. The protein concentration was determined using the BioRad protein assay kit according to the manufacturer's instructions. Cell proteins were solubilized in sodium dodecyl sulfate polyacrylamide gel electrophoresis sample buffer ([…] Tris/HCl, pH 6.8, containing 10% v/v glycerol, 1% w/v SDS, 1% w/v β-mercaptoethanol, and 0.01% w/v bromophenol blue). The proteins (15 μg per lane) were resolved by electrophoresis in 3-8% (w/v) Tris-acetate SDS-polyacrylamide gels and transferred to Hybond-Enhanced Chemi-luminescence (ECL) nitro-cellulose membranes. Equal protein loading was determined by staining the blot with 0.1% (w/v) Ponceau S in 5% (v/v) acetic acid. The nitro-cellulose was then blocked overnight at 4° C. in 0.5M Tris-HCl,pH 7.4, containing 3% (w/v) normal goat serum, 1% (w/v) bovine serum albumin and 0.05% (v/v) Tween-20. […]
Media was harvested and measured for nitrite content (FIG. 1). […]
(A western blot detects proteins with antibodies after separation by electrophoresis.)

In general, IC50 refers to the concentration that inhibits the measured activity by half. In the case of `CC(=N)NCCCC[C@H](N)C(=O)O` [L-NIL], in experiment [1], the 50% inhibitory concentration (IC50) is around 5.7 µM. Also, the “effect on iNOS expression as detected by immunoblotting” value in experiment [2] is recorded as “did not affect”.
